According to patent US4451475A, “Cyclic sulphenamide compounds, their production and their medicinal use” (Bayer Aktiengesellschaft, priority 1981, dated 1984):

Key:
[1] = system: lipoxygenase; cyclooxygenase; conditions: in words; one statement for all four named inhibitors; cited from earlier work
platelet lipoxygenase = target: T1, platelet lipoxygenase (Homo sapiens, UniProt P18054); assay: Inhibition of the platelet lipoxygenase (synthesis of HETE), metabolism of radioactively labelled arachidonic acid by washed human platelets; format: cell-based; conditions: in vitro
T1 construct: metabolism of radioactively labelled arachidonic acid by washed human platelets; endogenous in cells; host or cells: washed human platelets
T1 sequence (P18054 1-663): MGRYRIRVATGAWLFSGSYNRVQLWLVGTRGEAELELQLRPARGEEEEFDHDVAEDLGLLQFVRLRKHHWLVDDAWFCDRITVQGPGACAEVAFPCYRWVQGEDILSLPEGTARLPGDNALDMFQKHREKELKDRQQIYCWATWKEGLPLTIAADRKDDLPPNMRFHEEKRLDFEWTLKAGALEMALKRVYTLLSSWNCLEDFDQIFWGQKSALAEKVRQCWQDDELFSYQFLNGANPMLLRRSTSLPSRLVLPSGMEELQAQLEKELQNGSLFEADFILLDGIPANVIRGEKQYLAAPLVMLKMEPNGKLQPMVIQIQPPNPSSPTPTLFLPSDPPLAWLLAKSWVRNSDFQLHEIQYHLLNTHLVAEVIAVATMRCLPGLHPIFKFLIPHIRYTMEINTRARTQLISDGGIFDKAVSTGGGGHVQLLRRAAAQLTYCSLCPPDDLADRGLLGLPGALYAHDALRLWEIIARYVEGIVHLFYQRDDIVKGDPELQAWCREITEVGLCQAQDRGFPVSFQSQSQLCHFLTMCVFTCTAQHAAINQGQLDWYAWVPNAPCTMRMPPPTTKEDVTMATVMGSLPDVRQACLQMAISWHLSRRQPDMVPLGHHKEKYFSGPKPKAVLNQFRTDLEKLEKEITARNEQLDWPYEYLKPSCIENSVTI
Method: Use is made in this test method of the metabolism of radioactively labelled arachidonic acid by washed human platelets. In this in vitro test, the radioactively labelled metabolites are extracted from the reaction mixture and separated by thin layer chromatography. The autoradiogram is evaluated on a thin layer scanner. Under these test conditions, the labelled metabolites are separated from the unreacted arachidonic acid and are subsequently quantitatively evaluated. The distribution of the radioactivity in the cyclooxygenase products, formed during metabolism, thromboxane B2 (TXB2) and 12-hydroxy-5,8,10-heptadecatrienoic acid (HHT) and the lipoxygenase product 12-hydroxy-5,8,11,14-eicosatetraenoic acid (HETE), as influenced by the inhibitors, gives a measure of the inhibition of the enzymes.
The inhibition of lipoxygenase by the sulphenamides according to the invention can be measured by the inhibition of the synthesis of HETE.

leucocytes = assay: Inhibition of the migration of leucocytes after local administration by a sponge soaked in active compound under the dorsal skin of rats; format: in vivo; conditions: 10 mg/rat
Text: The sulphenamides according to the present invention are also active in vivo. […] The following Table 2 summarises the activities of some illustrative sulphenamides after local administration, by introduction of a piece of sponge soaked in the active compound under the dorsal skin of rats.

Minimum effective inhibitory concentration (at least 50% inhibition), inhibition of the platelet lipoxygenase (synthesis of HETE) (platelet lipoxygenase)	SMILES	Selectivity/potency of known inhibitors of lipoxygenase [1]	Inhibition of the migration of leucocytes (control = 0%) (leucocytes)
	CCCCCC=CCC=CCC=CCC=CCCCC(=O)O [5,8,11,14-eicosatetraenoic acid]	either simultaneously inhibitors of cyclooxygenase or only active at very high concentrations	
	O=C1CCN(c2ccccc2)N1 [phenidone]	either simultaneously inhibitors of cyclooxygenase or only active at very high concentrations	
10^-7 g/ml	O=C1OCCN1Sc1ccc(Cl)cc1 [Example 4, 3-(4-chlorophenylthio)-oxazolidin-2-one]		80%
10^-6 g/ml	O=C1OCCN1Sc1ccccc1 [Example 2, 3-phenylthio-oxazolidin-2-one]		55%
	CC(C)(C)c1ccc(SN2CCOC2=O)cc1 [Example 5, 3-(4-tert.-butylphenylthio)-oxazolidin-2-one]		72%
	O=c1scc(-c2ccccc2)n1Sc1ccc(Cl)cc1 [Example 10, 3-(4-chlorophenylthio)-4-phenylthiazolin-2-one]		53%
	CC(Cc1ccc(O)c(O)c1)C(C)Cc1ccc(O)c(O)c1 (stereo not drawn) [nordihydroguaiaretic acid]	either simultaneously inhibitors of cyclooxygenase or only active at very high concentrations	
